In paper PMC3265452 (PLoS Neglected Tropical Diseases, 2012):
Where a name gives a salt, the structure may show the parent alone.

The compounds below were run against AaDOP2 (Aedes aegypti, UniProt H6D5H2) (assay: AaDOP2 antagonist screen of the LOPAC1280 library (HEK-CRELuc-Aadop2 cells, luminescence)). Settings: not given.
Format: cell-based

Chain of AaDOP2 (H6D5H2 1-476): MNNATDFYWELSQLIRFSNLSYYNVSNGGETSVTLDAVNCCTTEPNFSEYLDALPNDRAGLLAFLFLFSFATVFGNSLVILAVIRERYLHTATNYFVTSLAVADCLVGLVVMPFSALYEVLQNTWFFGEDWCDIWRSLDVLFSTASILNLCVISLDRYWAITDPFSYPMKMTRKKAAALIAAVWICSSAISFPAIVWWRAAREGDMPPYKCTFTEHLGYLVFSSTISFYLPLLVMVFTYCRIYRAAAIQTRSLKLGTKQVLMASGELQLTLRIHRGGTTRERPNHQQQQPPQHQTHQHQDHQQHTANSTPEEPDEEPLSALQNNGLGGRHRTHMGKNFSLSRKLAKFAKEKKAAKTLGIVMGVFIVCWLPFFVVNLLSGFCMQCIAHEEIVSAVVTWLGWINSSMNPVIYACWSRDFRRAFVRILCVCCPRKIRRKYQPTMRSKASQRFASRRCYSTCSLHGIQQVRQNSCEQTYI

Compound	Compound effect (percent receptor signaling in presence of test compound, relative lux units relative to the SCH23390 control)
CC(N)=NCc1cccc(CN)c1.Cl.Cl [Compound 1262, 1400W dihydrochloride]	96
COc1ccc(CCN)cc1O.Cl [Compound 586, 4-Methoxy-3-hydroxyphenethylamine hydrochloride]	130
C/C(O)=C(\C#N)C(=O)Nc1cc(Br)ccc1Br [Compound 713, LFM-A13]	98
NS(=O)(=O)c1cc2c(cc1Cl)NC(C1CC3C=CC1C3)NS2(=O)=O (stereo not shown) [Compound 321, Cyclothiazide]	93
O=C1N=c2cc(Cl)c(Cl)cc2=NC1=O [Compound 458, 6,7-Dichloroquinoxaline-2,3-dione]	129
COc1ccc(C2CNC(=O)C2)cc1OC1CCCC1 (stereo not shown) [Compound 1052, Rolipram]	118
N#C/C(=C\c1ccc(O)c(O)c1)C(=O)NCCc1ccccc1 [Compound 1181, Tyrphostin AG 698]	82
CC(=O)OCC(=O)[C@@]1(O)CC[C@H]2[C@@H]3CCC4=CC(=O)CC[C@]4(C)[C@H]3C(=O)C[C@@]21C [Compound 244, Cortisone 21-acetate]	110
COc1ccc2c(c1)[C@@]13CCCC[C@H]1[C@@H](C2)NCC3.Cl [Compound 831, 3-Methoxy-morphanin hydrochloride]	94
CNc1ncnc2c1ncn2[C@H]1C[C@H](OP(=O)(O)O)[C@@H](COP(=O)(O)O)O1 [Compound 764, MRS 2179]	105
CCCC1O[C@@H]2C[C@H]3[C@@H]4CCC5=CC(=O)C=C[C@]5(C)[C@H]4[C@@H](O)C[C@]3(C)[C@]2(C(=O)CO)O1 (stereo partly shown) [Compound 186, Budesonide]	128
CC1(C)NC(=O)N(c2ccc([N+](=O)[O-])c(C(F)(F)F)c2)C1=O [Compound 872, Nilutamide]	93
OC[C@H]1O[C@@H](n2cnc3c(NC4CCCCC4)ncnc32)[C@H](O)[C@@H]1O [Compound 322, N6-Cyclohexyladenosine]	100
N#CC(C#N)=C(N)/C(C#N)=C/c1cc(O)c(O)c(O)c1 [Compound 1204, Tyrphostin 51]	122
COc1cc2nc(N3CCN(C(=O)c4ccco4)CC3)nc(N)c2cc1OC [Compound 973, Prazosin hydrochloride]	81
Histamine, R(-)-alpha-methyl-, dihydrochloride [Compound 622]	127
CC(C[N+](C)(C)C)OC(N)=O (stereo not shown) [Compound 271, Bethanechol chloride]	116
O=C(O)CP(=O)(O)O [Compound 964, Phosphonoacetic acid]	84
CC(=O)N[C@@H](Cc1c[nH]c2ccccc12)C(=O)OCc1cc(C(F)(F)F)cc(C(F)(F)F)c1 [Compound 59, L-732,138]	100

Compound	Compound effect (percent receptor signaling in presence of test compound, relative lux units relative to the SCH23390 control)
NC(N)=NOCC[C@H](N)C(=O)O.O=S(=O)(O)O [Compound 320, L-Canavanine sulfate]	92
O=C(c1ccc2c(c1)OCCO2)N1CCCCC1 [Compound 352, CX 546]	97
CNCCC(Oc1ccccc1OC)c1ccccc1 (stereo not shown) [Compound 883, Nisoxetine hydrochloride]	84
COc1ccc2[nH]cc(CCN(C)C)c2c1.O=C(O)C(=O)O [Compound 745, 5-Methoxy DMT oxalate]	104
CCCCS(=N)(=O)CC[C@H](N)C(=O)O (stereo partly drawn) [Compound 167, L-Buthionine-sulfoximine]	81
CC(C)C[C@H](NC(=O)[C@H]1O[C@@H]1C(=O)O)C(=O)NCCCCN=C(N)N [Compound 480, E-64]	112
N=C(N)NCCC[C@H](N)C(=O)O [Compound 56, L-Arginine]	94
Nc1nnc(-c2cccc(Cl)c2Cl)c(N)n1 [Compound 701, Lamotrigine]	87
CNCCc1ccc(O)c(O)c1.Cl [Compound 399, N-Methyldopamine hydrochloride]	94
Nc1ncnc2c1ncn2C1CCCO1 (stereo not shown) [Compound 1136, SQ 22536]	120
CCN(CC)CCNC(=O)c1ccc(N)cc1 [Compound 996, Procainamide hydrochloride]	100
CC[N+](CC)(CC)CCOc1ccc(/C=C/c2ccccc2)cc1 [Compound 757, MG 624]	89
O=[N+]([O-])c1cccc2c(Br)n[nH]c12 [Compound 161, 3-Bromo-7-nitroindazole]	83
COc1ccc2[nH]cc(CCN)c2c1.Cl [Compound 791, O-Methylserotonin hydrochloride]	118
CCCn1cnc2c1c(=O)n(CCCCC(C)=O)c(=O)n2C [Compound 998, Propentofylline]	87
O=C1NCN(c2ccccc2)C12CCN(CC1COc3ccccc3O1)CC2 (stereo not shown) [Compound 1131, Spiroxatrine]	90
O=S(=O)(c1cccc2c(I)cccc12)N1CCCNCC1 [Compound 641, ML-7]	85
CC(CCc1ccc(O)cc1)NCCc1ccc(O)c(O)c1 (stereo not shown) [Compound 357, Dobutamine hydrochloride]	98
C=CCN1CCC2(C)c3cc(O)ccc3CC1C2C.Cl (single isomer, unassigned; (+)) [Compound 123, (+)-N-Allylnormetazocine hydrochloride]	90

Same assay, conditions: 10 µM compound, 300 nM dopamine, 2 hr; hit = compound effect <20

Compound	Compound effect (percent receptor signaling in presence of test compound, relative lux units relative to the SCH23390 control)
CN(C)C(N)=NCCC[C@H](N)C(=O)O.Cl [Compound 383, N^G,N^G-Dimethylarginine hydrochloride]	106%
O=C(O)CCC(=O)N1CCC[C@H]1C(=O)O [Compound 1104, N-Succinyl-L-proline]	111%
N=C(N)NC(CCC(=O)O)C(=O)O (stereo not drawn) [Compound 558, alpha-Guanidinoglutaric acid]	121%
S=C([S-])OC1CC2CC1C1CCCC21.[K+] [Compound 1213, D-609 potassium]	87%
COC(=O)C(N)Cc1ccc(Cl)cc1.Cl (racemic) [Compound 248, DL-p-Chlorophenylalanine methyl ester hydrochloride]	71%
CC(=O)NBr [Compound 164, N-Bromoacetamide]	104%
CNC(=O)[C@H]1O[C@@H](n2cnc3c(N)ncnc32)[C@H](O)[C@@H]1O [Compound 121, 5'-N-Methyl carboxamidoadenosine]	114%
COc1ccccc1N1CCN(CCN(C(=O)c2ccc(F)cc2)c2ccccn2)CC1.Cl.Cl [Compound 835, p-MPPF dihydrochloride]	81%
NS(=O)(=O)c1cccc2c1c([N+](=O)[O-])cc1nc([O-])c([O-])nc12.[Na+].[Na+] [Compound 892, NBQX disodium]	95%
[N-]=[N+]=Nc1ccc(C(=O)CSC[C@H](NC(=O)CC[C@H](N)C(=O)O)C(=O)NCC(=O)O)cc1 [Compound 27, S-(p-Azidophenacyl)glutathione]	105%
CC1=C(C(=O)O)N2C(=O)[C@@H](NC(=O)[C@H](N)c3ccccc3)[C@H]2SC1.O [Compound 265, Cephalexin hydrate]	87%
CC(C)(C)NCC(O)c1cc(O)cc(O)c1.CC(C)(C)NCC(O)c1cc(O)cc(O)c1.O=S(=O)(O)O (stereo not shown) [Compound 1161, Terbutaline hemisulfate]	119%
CCCCCCC(C(C)O)n1cnc2c(N)ncnc21.Cl (stereo not drawn) [Compound 507, erythro-9-(2-Hydroxy-3-nonyl)adenine hydrochloride]	128%
Cc1nc(N=Nc2cc(S(=O)(=O)[O-])c3cc([N+](=O)[O-])cc(S(=O)(=O)[O-])c3c2)c(COP(=O)([O-])[O-])c(C=O)c1O.[Na+].[Na+].[Na+].[Na+] [Compound 934, PPNDS tetrasodium]	106%
